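The compound was tested at five concentrations on cells cultured in 96-well plates, with a 48-hour exposure period. The concentration for 50% growth inhibition is given as GI50. TGI denotes the concentration required for complete inhibition of growth.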
Tests used:
Assay in all cases: NCI anticancer screen, dose series, 48 h
[1] = tested on: HCT-116 colon
[2] = tested on: KM12 colon
[3] = tested on: MDA-MB-435
[4] = tested on: NCI-H460 lung
[5] = tested on: PC-3 prostate
[6] = tested on: RPMI-8226 leukemia
[7] = tested on: SK-OV-3 ovarian
[8] = tested on: SNB-75 CNS
[9] = tested on: SW-620 colon
[10] = tested on: U251 CNS

SMILES	GI50 [1]	TGI [1]	GI50 [2]	TGI [2]	GI50 [3]	TGI [3]	GI50 [4]	TGI [4]	GI50 [5]	TGI [5]	GI50 [6]	TGI [6]	GI50 [7]	TGI [7]	GI50 [8]	TGI [8]	GI50 [9]	TGI [9]	GI50 [10]	TGI [10]
Cc1nn(Cc2ccccc2)cc1C(=O)Nc1sc2c(c1C(N)=O)CCC(=O)C2	1.28 µM	4.33 µM	1.94 µM	4.99 µM	1.98 µM	4.45 µM	3.52 µM	21.2 µM	0.752 µM	5.14 µM	1.18 µM	4.09 µM	2.7 µM	9.22 µM	1.74 µM	6.81 µM	0.985 µM	5.78 µM	2.62 µM	> 100 µM
COc1cccc(N2CCN(c3ncnc4cc[nH]c34)CC2)c1	3.67 µM	> 100 µM	9.8 µM	85 µM	2.73 µM	19 µM	7.19 µM	> 100 µM	6.99 µM	> 100 µM	2.78 µM	94.8 µM	51.5 µM	> 100 µM	15.1 µM	60.4 µM	68.6 µM	> 100 µM	12.7 µM	> 100 µM
COc1cc2c3cc1Oc1c(OC)c(OC)cc4c1[C@@H](Cc1ccc(O)c(c1)Oc1ccc(cc1)C[C@@H]3N(C)CC2)N(C)CC4		21.1 µM		27.7 µM				75.6 µM				41.5 µM				23.2 µM		33.8 µM		21.7 µM
O=C1C(Cl)=C(Nc2cc(Cl)ccc2O)C(=O)N1Cc1ccccc1	19.4 µM	35.6 µM	22 µM	48.2 µM	19 µM	34.9 µM	17.7 µM	34.3 µM	16.3 µM	32.6 µM	11.9 µM	39.5 µM	19.7 µM	43.3 µM	27.5 µM	64.6 µM	19 µM	38.5 µM	15.8 µM	29.6 µM
Cc1cc(Cl)ccc1N=C1NC(=O)C(CC(=O)Nc2cccc(C)c2C)S1 (stereo unspecified)				> 100 µM				> 100 µM				64.2 µM		55.9 µM		48.8 µM		> 100 µM		74.5 µM
COc1ccc(/C=C2\COc3ccc(O)c(O)c3C2=O)cc1OC	1.47 µM	3.61 µM			1.32 µM	3.78 µM	1.83 µM	5.02 µM	1.53 µM	6.82 µM	0.336 µM	1.51 µM	3.83 µM	> 100 µM	1.98 µM	29.1 µM			0.991 µM	7.2 µM
C=C1C(=O)O[C@H]2[C@H]1CC/C(COC(=O)CCCCCCCC(=O)OC/C1=C/CC[C@@]3(C)O[C@H]3[C@H]3OC(=O)C(=C)[C@@H]3CC1)=C\CC[C@@]1(C)O[C@@H]21			1.95 µM	4.26 µM	2.59 µM	7.33 µM	3.06 µM	9.1 µM	1.96 µM	4.62 µM	1.31 µM	6.46 µM	13.1 µM	34.3 µM	12.3 µM	35.9 µM	1.46 µM	3.24 µM	2.13 µM	5.37 µM
Cn1c2c(c3ccccc3c1=O)C(=O)c1ccccc1-2		> 100 µM		> 100 µM		> 100 µM				> 100 µM		> 100 µM		> 100 µM		> 100 µM		> 100 µM		> 100 µM
CN(CCCN1C(=O)c2cccc3cc([N+](=O)[O-])cc(c23)C1=O)CCN(C)CCCN1C(=O)c2cccc3cc([N+](=O)[O-])cc(c23)C1=O		> 39.3 µM		> 39.3 µM				> 39.3 µM				> 39.3 µM		> 39.3 µM		> 39.3 µM		> 39.3 µM		> 39.3 µM
CCOC(=O)C(=O)Nc1c(C)cccc1C(C)(C)C		> 100 µM		> 100 µM				> 100 µM				> 100 µM		> 100 µM		> 100 µM		> 100 µM		> 100 µM
C=C(C)C1CCC2=CC(CC3(C)OC3C3=CC(C(=O)OC)=C(C1)O3)OC2=O (stereo unspecified)		> 100 µM		> 100 µM		> 100 µM		> 100 µM		> 100 µM						> 100 µM		> 100 µM		> 100 µM
COc1c(-c2ccc3c(c2)OCO3)oc2cc(O)cc(O)c2c1=O		> 100 µM		> 100 µM		> 100 µM		> 100 µM		> 100 µM		> 100 µM		85.4 µM		53.6 µM				> 100 µM
CC(C)N1C(C)[C@@H](c2ccccc2)O[P@@]1(=O)CC1=CCCCC1 (stereo partly specified)		> 100 µM		> 100 µM				> 100 µM				> 100 µM		> 100 µM		> 100 µM		> 100 µM		> 100 µM
O=[N+]([O-])c1cccc(S(=O)(=O)N/N=C/c2cc(I)cc([N+](=O)[O-])c2O)c1		71.1 µM		> 100 µM				> 100 µM				86.2 µM		73.2 µM		67.2 µM		58.5 µM		57.8 µM
CC(=O)c1ccc2c3c1[C@H]1O[C@H]1c1cccc(c1-3)[C@@H]1O[C@H]21		3.87 µM		5.31 µM		4.54 µM						8.35 µM		16 µM		6.12 µM		3.01 µM		4.3 µM
Nn1c(-c2cccc(Cl)c2)nc2ccccc2c1=O		> 100 µM		> 100 µM				> 100 µM				> 100 µM		> 100 µM		> 100 µM		> 100 µM		> 100 µM
O=[N+]([O-])c1ccc(C2SCc3nc4ccccc4n32)cc1 (stereo unspecified)				> 100 µM				> 100 µM						> 100 µM				> 100 µM		> 100 µM
CC(=O)[CH-]C(=O)c1ccccc1.CC(=O)[CH-]C(=O)c1ccccc1.CC[C@H](/C=C/C(C)[C@H]1CCC2[C@@H]3CC=C4C[C@@H]([O-])CC[C@]4(C)C3CC[C@@]21C)C(C)C.CC[C@H](/C=C/C(C)[C@H]1CCC2[C@@H]3CC=C4C[C@@H]([O-])CC[C@]4(C)C3CC[C@@]21C)C(C)C.Cl.[Ti+4] (stereo partly specified)	> 25 µM	> 25 µM	> 25 µM	> 25 µM			> 25 µM	> 25 µM			> 25 µM	> 25 µM	> 25 µM	> 25 µM			> 25 µM	> 25 µM	> 25 µM	> 25 µM

Reference: PubChem BioAssay (NCI)
